Test results as given in patent US11076595B2, “1-(n,n-disubstituted carbamoyl) 4-(substituted sulfonyl)triazolin-5-one derivative, 4-(n,n-disubstituted carbamoyl) 1-(substituted sulfonyl)triazolin-5-one derivative, and herbicide containing said derivative as active ingredient” (HOKKO CHEMICAL INDUSTRY CO., LTD., priority 2017, dated 2021).

Experiments:
Format in all cases: in vivo
[1] = system: Echinochloa crus-galli; experiment: Test Example 11: herbicidal effect test by soil treatment in paddy field; conditions: 120 g/10a active ingredient, 14 days after treatment
Procedure, shortened: (§1)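 Weed suppression rate (%) was calculated as (1 − mean treated dry weight / mean untreated dry weight) × 100 at 14 days after treatment, two replicates per plot. Seeds were sown at 0–1 cm in flooded (about 3 cm) puddled paddy soil and treated immediately at 120 g active ingredient per 10 are.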

[2] = system: Lindernia pyxidaria; experiment: as above; conditions: 120 g/10a active ingredient, 14 days after treatment
Procedure, shortened: as §1

[3] = system: Monochoria vaginalis; experiment: as above; conditions: 120 g/10a active ingredient, 14 days after treatment
Procedure, shortened: as §1

[4] = system: Scirpus juncoides; experiment: as above; conditions: 120 g/10a active ingredient, 14 days after treatment
Procedure, shortened: as §1

[5] = system: Echinochloa crus-galli; experiment: Test Example 12: herbicidal effect test by treatment during growing period in paddy field; conditions: 120 g/10a; treatment seven days after sowing in flooded paddy pot; assessed 14 days after treatment
Procedure, shortened: (§2)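 Growing-period treatment in flooded paddy pots: the diluted emulsifiable concentrate was dripped in at 120 g a.i. per 10 are seven days after seeding. Inhibition is expressed as percent reduction in dry weight versus untreated pots, measured 14 days later in duplicate.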

[6] = system: Lindernia pyxidaria; experiment: as above; conditions: 120 g/10a; treatment seven days after sowing in flooded paddy pot; assessed 14 days after treatment
Procedure, shortened: as §2

[7] = system: Monochoria vaginalis; experiment: as above; conditions: 120 g/10a; treatment seven days after sowing in flooded paddy pot; assessed 14 days after treatment
Procedure, shortened: as §2

[8] = system: Scirpus juncoides; experiment: as above; conditions: 120 g/10a; treatment seven days after sowing in flooded paddy pot; assessed 14 days after treatment
Procedure, shortened: as §2

[9] = system: Chenopodium album; experiment: Test Example 14: herbicidal effect test by foliage treatment in upland field; conditions: 7 days after sowing, 120 g/10a, 14 days after treatment
Protocol: (§3) A pot having a size of 36 cm^2 was filled with field soil (alluvial soil) and after uniformly mixing the soil of the surface layer of 1 cm with 20 grains of each weed seed of crabgrass, Echinochloa crus-galli, Chenopodium album and Amaranthus viridis, the surface layer was pressed lightly. Seven Days after the sowing, an emulsifiable concentrate prepared according to Formulation Example 15 by using the compound shown in Table 12 below was diluted with water, and the water-diluted formulation was sprayed on the soil surface at a ratio of 100 liter per 10 are. The application rate of the active ingredient, by conversion, corresponded to 120 g per 10 are. Fourteen Days after the formulation treatment, the herbicidal effect was evaluated by the same criteria as in Test Example 11.

[10] = system: crabgrass; experiment: as above; conditions: 7 days after sowing, 120 g/10a, 14 days after treatment
Protocol: as §3

[11] = system: Amaranthus viridis; experiment: as above; conditions: 7 days after sowing, 120 g/10a, 14 days after treatment
Protocol: (§4) This test was performed with two replications per one formulation concentration plot, and 14 days after the formulation treatments, the weed suppression rate (%) was determined according to the following equation (Math. 2). Weed suppression rate (%)=(1−average dry weight (g) of plants in treated plots/average dry weight (g) of plants in untreated plots)×100 [Math. 2]
as §3

[12] = system: Echinochloa crus-galli; experiment: as above; conditions: 7 days after sowing, 120 g/10a, 14 days after treatment
Protocol: as §4, §3

SMILES	Weed suppression rate (%) Echinochloa crus-galli [1] [%]	Weed suppression rate (%) Lindemia pyxidaria [2] [%]	Weed suppression rate (%) Monochoria vaginalis [3] [%]	Weed suppression rate (%) Scirpus juncoides [4] [%]	Weed suppression rate (%) Echinochloa crus-galli [5] [%]	Weed suppression rate (%) Lindemia pyxidaria [6] [%]	Weed suppression rate (%) Monochoria vaginalis [7] [%]	Weed suppression rate (%) Scirpus juncoides [8] [%]	herbicidal effect, Chenopodium album [9] [%]	herbicidal effect, Crabgrass [10] [%]	herbicidal effect, Amaranthus viridis [11] [%]	herbicidal effect, Echinochloa crus-galli [12] [%]
CC(C)N(C(=O)n1cnn(S(=O)(=O)c2ccc(F)cc2)c1=O)c1ccccc1 [Compound 11-464]	100	80	60	80	90	60	80	90	50	90	50	60
CC(C)N(C(=O)n1cnn(S(=O)(=O)C2CCCCC2)c1=O)c1c(F)c(F)cc(F)c1F [Compound 11-299]	100	100	70	100	100	80	100	100	60	100	60	100
CC(C)N(C(=O)n1cnn(S(=O)(=O)c2ccccc2F)c1=O)c1ccc(F)c(F)c1F [Compound 11-405]	100	100	100	100	100	100	100	100	60	90	70	90
CC(C)N(C(=O)n1cnn(S(=O)(=O)C2CC2)c1=O)c1ccc(C(F)(F)F)cc1F [Compound 11-217]	100	100	100	80	100	80	90	80	70	100	60	100
CC(C)N(C(=O)n1cnn(S(=O)(=O)C2CC2)c1=O)c1ccc(Cl)cc1F [Compound 11-206]	100	100	100	100	100	90	90	90	60	90	60	90
Cc1ccc(S(=O)(=O)n2ncn(C(=O)N(c3c(F)cc(F)cc3F)C(C)C)c2=O)cc1 [Compound 11-641]	100	100	80	100	100	80	90	100	70	90	60	100
CCN(CC)S(=O)(=O)n1ncn(C(=O)N(c2ccc(F)cc2F)C(C)C)c1=O [Compound 11-1099]	–	–	–	–	–	–	–	–	80	90	90	80
